According to patent US12552848B2, “Hydrochloride salts of C5a receptor agonist peptides” (Board of Regents of the University of Nebraska, priority 2017, dated 2026):
Non-standard residues stand in square brackets, D forms with d. No end group written: not given here. NMeL = CN[C@@H](CC(C)C)C(=O)O

Legend:
mouse spleen cells = assay: 24-hour dose response: IL-6 release from mouse spleen cells (ELISA of supernatants); type: cell-based; conditions: for IL-6: 24 hrs incubation, mouse spleen cells, ± SD
Description: (§1) Salt forms of EP67 (SEQ ID NO:2) generated using the above procedures were incubated at varying concentrations with murine splenocytes over time.
A 24-hour dose response was investigated by incubating mouse spleen cells for 24 hrs with varying concentrations of the EP67 salts. Supernatants were collected and assayed for IL-6 by ELISA.

mice spleen cells = assay: IL-6 kinetics: IL-6 release over time from mice spleen cells; type: cell-based, mouse; conditions: for IL-6: 100 μg/mL, mice spleen cells, ± SD
Description: as §1
Next, IL-6 kinetics were investigated by incubating mice spleen cells with 100 μg/mL of each salt form, and the release was examined over time.

Substance	IL-6 (mouse spleen cells; 0.1 μg/mL activator)	IL-6 (mouse spleen cells; 1.0 μg/mL activator)	IL-6 (mouse spleen cells; 10 μg/mL activator)	IL-6 (mouse spleen cells; 100 μg/mL activator)	IL-6 (mice spleen cells; time collected 6 hr)	IL-6 (mice spleen cells; time collected 24 hr)	IL-6 (mice spleen cells; time collected 48 hr)	IL-6 (mice spleen cells; time collected 72 hr)	total amount of cytokine (IL-6) released from murine splenocytes, compared with other salt forms (mouse spleen cells; varying concentrations, murine splenocytes)	kinetics of IL-6 release (time to maximal release), compared with other salt forms (mice spleen cells; murine splenocytes, over time)
EP67•OAc^−: acetate salt form of EP67 (SEQ ID NO:2), comparator salt (YSFKDMP[NMeL][dA]R-OH; also: acetate salt)	188 ± 1 pg/mL	325 ± 23 pg/mL	225 ± 20 pg/mL	780 ± 9 pg/mL	188 ± 1 pg/mL	325 ± 23 pg/mL	900 ± 17 pg/mL			
EP67•TFA: TFA salt form of EP67 (SEQ ID NO:2), comparator salt (YSFKDMP[NMeL][dA]R-OH; also: TFA salt)	178 ± 1 pg/mL	185 ± 2 pg/mL	308 ± 7 pg/mL	803 ± 6 pg/mL	55 ± 1 pg/mL	803 ± 6 pg/mL	442 ± 13 pg/mL	75 ± 6 pg/mL		
EP67•HCl: HCl salt form of EP67 (SEQ ID NO:2), a response selective C-terminal analog of C5a (YSFKDMP[NMeL][dA]R-OH; also: HCl salt)	176 ± 3 pg/mL	225 ± 1 pg/mL	738 ± 5 pg/mL	1163 ± 2 pg/mL	47 ± 1 pg/mL	1163 ± 2 pg/mL	923 ± 6 pg/mL	200 ± 11 pg/mL	outperformed the acetate (OAc) and, particularly, the TEA salt forms	maximal IL-6 release quicker than the other two salt forms
